In patent US3953501A, “Triiodoisophthalic acid monoamino acid amides” (Schering Aktiengesellschaft, priority 1972, dated 1976):
Values joined by “and” are separate entries in the source; they are usually repeats but may differ in a detail not shown here. Equal values may be shown once.

What follows are compounds tested on rats (assay: Intracerebral compatibility according to Valzelli). Settings: methylglucamine salts, 200 mg. I/ml., dose evoking neurological symptoms (including convulsions and death) in 50% of animals, (1) = Iotalamat (H), (2) = compound.
Type: in vivo
Procedure: (§1) All substances were tested as methylglucamine salts with 200 mg. I/ml. of solution. The intracerebral compatibility was determined on rats in accordance with Valzelli, Med. Exp. 11: 23-26 (1964).
(§2) As a measure of physiological compatibility, the ED50 was determined in each case, i.e., the dose at which an undesired array of neurological symptoms (including convulsions and death) is evoked in 50% of the animals.

Point of comparison: `CC(=O)Nc1c(I)c(C(N)=O)c(I)c(C(=O)NCC(=O)O)c1I` [E, N-(3-Aminocarbonyl-5-acetamido-2,4,6-triiodobenzoyl)-glycine], “ED50 intracerebral compatibility according to Valzelli (myelography)” value 69.84 mg. I/kg.. Against it:
- CNC(=O)C(C)NC(=O)c1c(I)c(NC(C)=O)c(I)c(C(=O)O)c1I (racemic) [B, N-(3-Carboxy-5-acetamido-2,4,6-triiodobenzoyl)-DL-alanine Methylamide] — lower, 66.30 mg. I/kg.
- CNC(=O)C(CO)NC(=O)c1c(I)c(NC(=O)COC)c(I)c(C(=O)O)c1I (racemic) [F, N-(3-Carboxy-5-methoxyacetamido-2,4,6-triiodobenzoyl)-DL-serine Methylamide] — higher, 81.32 mg. I/kg.
- CC(=O)Nc1c(I)c(C(=O)O)c(I)c(C(=O)NCC(N)=O)c1I [A, N-(3-Carboxy-5-acetamido-2,4,6-triiodobenzoyl)-glycine Amide] — higher, 70.72 mg. I/kg.
- CNC(=O)CNC(=O)c1c(I)c(NC(=O)COC)c(I)c(C(=O)O)c1I [C, N-(3-Carboxy-5-methoxyacetamido-2,4,6-triiodobenzoyl)-glycine Methylamide] — lower, 53.97 mg. I/kg.
- CNC(=O)c1c(I)c(NC(C)=O)c(I)c(C(=O)N(C)CC(=O)O)c1I [D, N-(3-Methylaminocarbonyl-5-acetamido-2,4,6-triiodobenzoyl)-sarcosine] — higher, 76.21 mg. I/kg.
- CNC(=O)CNC(=O)c1c(I)c(NC(=O)CO)c(I)c(C(=O)O)c1I [G, N-(3-Carboxy-5-hydroxyacetamido-2,4,6-triiodobenzoyl)-glycine Methylamide] — lower, 62.62 mg. I/kg.

For `CNC(=O)c1c(I)c(NC(C)=O)c(I)c(C(=O)O)c1I` [H, 3-acetamido-5-methylcarbamoyl-2,4,6-triiodobenzoic acid, reference compound], the “ED50 intracerebral compatibility according to Valzelli (myelography)” value was 59.83 mg. I/kg. and 56.59 mg. I/kg. and 60.86 mg. I/kg. and 61.92 mg. I/kg. and 61.28 mg. I/kg.

The compounds below were run on rats (assay: Cisternal compatibility (injection into suboccipital cisterna)). Settings: 0.008 - 0.200 ml./kg., methylglucamine salts, 200 mg. I/ml., neurological symptoms in 50% of animals, (1) = Iotalamat (H), (2) = compound.
Type: in vivo
Procedure: as §1
In order to determine the cisternal compatibility, the test compounds were injected in varying doses (0.008 - 0.200 ml./kg.) by means of a Hamilton No. 710 syringe directly into the suboccipital cisterna of rats which were under a slight ether narcosis.
as §2

Point of comparison: `CC(=O)Nc1c(I)c(C(N)=O)c(I)c(C(=O)NCC(=O)O)c1I` [E, N-(3-Aminocarbonyl-5-acetamido-2,4,6-triiodobenzoyl)-glycine], “ED50 cisternal compatibility (myelography)” value 14.42 mg. I/kg.. Against it:
- CNC(=O)C(C)NC(=O)c1c(I)c(NC(C)=O)c(I)c(C(=O)O)c1I (racemic) [B, N-(3-Carboxy-5-acetamido-2,4,6-triiodobenzoyl)-DL-alanine Methylamide] — higher, 16.7 mg. I/kg.
- CNC(=O)C(CO)NC(=O)c1c(I)c(NC(=O)COC)c(I)c(C(=O)O)c1I (racemic) [F, N-(3-Carboxy-5-methoxyacetamido-2,4,6-triiodobenzoyl)-DL-serine Methylamide] — higher, 22.8 mg. I/kg.
- CC(=O)Nc1c(I)c(C(=O)O)c(I)c(C(=O)NCC(N)=O)c1I [A, N-(3-Carboxy-5-acetamido-2,4,6-triiodobenzoyl)-glycine Amide] — lower, 11.17 mg. I/kg.
- CNC(=O)CNC(=O)c1c(I)c(NC(=O)COC)c(I)c(C(=O)O)c1I [C, N-(3-Carboxy-5-methoxyacetamido-2,4,6-triiodobenzoyl)-glycine Methylamide] — higher, 20.04 mg. I/kg.
- CNC(=O)c1c(I)c(NC(C)=O)c(I)c(C(=O)N(C)CC(=O)O)c1I [D, N-(3-Methylaminocarbonyl-5-acetamido-2,4,6-triiodobenzoyl)-sarcosine] — lower, 11.93 mg. I/kg.
- CNC(=O)CNC(=O)c1c(I)c(NC(=O)CO)c(I)c(C(=O)O)c1I [G, N-(3-Carboxy-5-hydroxyacetamido-2,4,6-triiodobenzoyl)-glycine Methylamide] — lower, 11.8 mg. I/kg.

In the case of `CNC(=O)c1c(I)c(NC(C)=O)c(I)c(C(=O)O)c1I` [H, 3-acetamido-5-methylcarbamoyl-2,4,6-triiodobenzoic acid, reference compound], the “ED50 cisternal compatibility (myelography)” value is reported as 10.56 mg. I/kg. and 11.8 mg. I/kg. and 9.8 mg. I/kg. and 10.9 mg. I/kg. and 10.07 mg. I/kg. and 10.30 mg. I/kg.

These compounds were tested on rats (assay: Cerebral compatibility (injection into left common carotid artery)). Settings: 14.0 - 26.0 ml./kg., methylglucamine salts, 200 mg. I/ml., neurological symptoms in 50% of animals, (1) = Iotalamat (H), (2) = compound.
Type: in vivo
Procedure: as §1
Cerebral compatibility was likewise determined on rats. In an operation under a slight ether narcosis, a catheter was affixed in the left common carotid artery; the distal end of the catheter, after having been passed through the lateral connective tissue of the neck, was fixed in the center of the back. Three hours later, the test compounds were cranially injected in varying doses (14.0 - 26.0 ml./kg.) into the artery.
as §2

Point of comparison: `CNC(=O)C(CO)NC(=O)c1c(I)c(NC(=O)COC)c(I)c(C(=O)O)c1I` (racemic) [F, N-(3-Carboxy-5-methoxyacetamido-2,4,6-triiodobenzoyl)-DL-serine Methylamide], “ED50 cerebral compatibility (angiography)” value 3.78 g I/kg. Against it:
- CNC(=O)c1c(I)c(NC(C)=O)c(I)c(C(=O)N(C)CC(=O)O)c1I [D, N-(3-Methylaminocarbonyl-5-acetamido-2,4,6-triiodobenzoyl)-sarcosine] — higher, 3.99 g I/kg
- CNC(=O)CNC(=O)c1c(I)c(NC(=O)CO)c(I)c(C(=O)O)c1I [G, N-(3-Carboxy-5-hydroxyacetamido-2,4,6-triiodobenzoyl)-glycine Methylamide] — lower, 3.55 g I/kg
